Activity calls are given as the source filed them.

In assay [1] the target is DNA topoisomerase (Yersinia pestis, UniProt A0A2S9PM60). Kind of assay: Y. pestis Topo-I inhibitors, cleavage product readout, dose response, biochemical, cherry-pick (AID 588525).
In assay [2] the target is T1, Hexokinase HKDC1 (Homo sapiens, UniProt Q2TB90).
T1 sequence (Q2TB90 whole entry): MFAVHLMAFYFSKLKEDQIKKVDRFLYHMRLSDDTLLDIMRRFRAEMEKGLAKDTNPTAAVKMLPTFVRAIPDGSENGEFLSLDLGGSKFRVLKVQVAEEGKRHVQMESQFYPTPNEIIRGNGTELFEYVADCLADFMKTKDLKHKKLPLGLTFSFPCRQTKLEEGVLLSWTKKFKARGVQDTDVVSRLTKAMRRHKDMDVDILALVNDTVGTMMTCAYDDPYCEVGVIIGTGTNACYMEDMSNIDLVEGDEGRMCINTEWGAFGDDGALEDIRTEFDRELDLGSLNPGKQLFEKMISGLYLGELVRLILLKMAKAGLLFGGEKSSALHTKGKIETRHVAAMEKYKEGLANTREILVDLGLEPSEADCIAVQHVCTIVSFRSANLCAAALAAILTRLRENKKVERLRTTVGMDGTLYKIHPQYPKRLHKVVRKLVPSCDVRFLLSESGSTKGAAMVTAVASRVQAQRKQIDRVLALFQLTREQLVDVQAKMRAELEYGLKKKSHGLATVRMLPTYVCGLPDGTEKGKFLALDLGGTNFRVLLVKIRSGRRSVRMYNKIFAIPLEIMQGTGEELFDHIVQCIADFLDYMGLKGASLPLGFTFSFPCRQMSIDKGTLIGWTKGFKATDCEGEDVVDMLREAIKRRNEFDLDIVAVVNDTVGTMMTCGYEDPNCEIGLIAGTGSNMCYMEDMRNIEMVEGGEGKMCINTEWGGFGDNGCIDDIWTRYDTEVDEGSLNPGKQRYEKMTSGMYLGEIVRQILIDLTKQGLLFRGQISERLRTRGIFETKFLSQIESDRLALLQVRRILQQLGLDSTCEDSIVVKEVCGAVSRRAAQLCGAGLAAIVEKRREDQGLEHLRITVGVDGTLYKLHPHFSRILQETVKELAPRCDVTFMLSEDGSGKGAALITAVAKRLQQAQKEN
Kind of assay: SAR analysis of small molecule inhibitors of hexokinase domain containing I (HKDC1). [Related pubchem assays (depositor defined):AID493160, AID493190]. The assay is classed as functional.

The target of assay [3] is Hexokinase-1 (Homo sapiens, UniProt P19367). Briefly: SAR analysis of small molecule inhibitors of hexokinase domain containing I (HKDC1) in the hexokinase 1 selectivity assay. [Related pubchem assays (depositor defined):AID493160, AID493190]. The class given is functional.
Hexokinase-1, sequence (P19367 whole entry, the tested form may be a part): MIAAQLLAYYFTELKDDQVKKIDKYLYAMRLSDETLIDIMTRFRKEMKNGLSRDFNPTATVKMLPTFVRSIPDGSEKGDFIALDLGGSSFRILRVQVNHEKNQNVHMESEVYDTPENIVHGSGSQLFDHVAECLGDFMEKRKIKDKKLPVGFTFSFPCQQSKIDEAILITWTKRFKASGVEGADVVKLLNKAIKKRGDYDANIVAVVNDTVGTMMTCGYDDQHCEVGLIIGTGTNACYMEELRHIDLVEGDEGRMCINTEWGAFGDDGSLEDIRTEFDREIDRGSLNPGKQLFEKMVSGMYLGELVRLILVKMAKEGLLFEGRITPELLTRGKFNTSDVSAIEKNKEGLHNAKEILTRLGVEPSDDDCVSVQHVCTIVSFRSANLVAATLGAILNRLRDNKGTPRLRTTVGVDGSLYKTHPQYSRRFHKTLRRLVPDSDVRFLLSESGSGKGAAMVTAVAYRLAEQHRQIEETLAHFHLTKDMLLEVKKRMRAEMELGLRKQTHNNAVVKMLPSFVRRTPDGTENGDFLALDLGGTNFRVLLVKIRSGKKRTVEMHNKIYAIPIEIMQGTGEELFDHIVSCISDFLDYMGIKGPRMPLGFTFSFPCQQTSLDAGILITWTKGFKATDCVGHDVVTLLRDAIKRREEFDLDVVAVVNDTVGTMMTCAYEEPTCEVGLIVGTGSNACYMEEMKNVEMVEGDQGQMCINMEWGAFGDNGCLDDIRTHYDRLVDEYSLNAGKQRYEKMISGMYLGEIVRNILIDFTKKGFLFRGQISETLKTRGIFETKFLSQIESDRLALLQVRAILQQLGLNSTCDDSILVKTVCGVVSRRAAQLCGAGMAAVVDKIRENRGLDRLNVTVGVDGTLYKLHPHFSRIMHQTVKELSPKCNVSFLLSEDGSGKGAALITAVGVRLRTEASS
Assay [4] has as its target Apoptotic protease-activating factor 1 (Homo sapiens, UniProt O14727). The class given is functional.
The nature of assay [5]: nonselective inhibitors of cellular cAMP signaling, dose response, counter-screen for MC4R biased antagonist project, cell-based, TR-FRET cAMP detection (AID 602305).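 Note: U2OS cells stimulated with forskolin near its EC80 as the cAMP inducer; potency is for inhibition of forskolin-stimulated cAMP signaling.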 The class given is functional.
In assay [6] the target is Melanocortin receptor 4 (Homo sapiens, UniProt P32245). Briefly: MC4R antagonist potency on cAMP, dose response, cell-based, TR-FRET, biased antagonists (AID 602298).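 Note: antagonist potency against agonist-stimulated cAMP production.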 The class given is functional.
Melanocortin receptor 4, sequence (P32245 whole entry): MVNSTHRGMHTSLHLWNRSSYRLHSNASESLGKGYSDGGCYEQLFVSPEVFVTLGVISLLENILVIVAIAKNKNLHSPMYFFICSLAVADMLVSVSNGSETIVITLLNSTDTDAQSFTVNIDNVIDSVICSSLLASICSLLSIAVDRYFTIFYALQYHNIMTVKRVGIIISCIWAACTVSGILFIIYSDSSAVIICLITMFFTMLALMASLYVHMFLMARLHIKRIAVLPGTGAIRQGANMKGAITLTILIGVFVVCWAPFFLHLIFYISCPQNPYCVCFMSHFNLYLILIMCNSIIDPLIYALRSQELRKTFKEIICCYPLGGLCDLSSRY
The target of assay [7] is T2, Rac GTPase-activating protein 1 (Homo sapiens, UniProt Q9H0H5).
T2 sequence (Q9H0H5 whole entry): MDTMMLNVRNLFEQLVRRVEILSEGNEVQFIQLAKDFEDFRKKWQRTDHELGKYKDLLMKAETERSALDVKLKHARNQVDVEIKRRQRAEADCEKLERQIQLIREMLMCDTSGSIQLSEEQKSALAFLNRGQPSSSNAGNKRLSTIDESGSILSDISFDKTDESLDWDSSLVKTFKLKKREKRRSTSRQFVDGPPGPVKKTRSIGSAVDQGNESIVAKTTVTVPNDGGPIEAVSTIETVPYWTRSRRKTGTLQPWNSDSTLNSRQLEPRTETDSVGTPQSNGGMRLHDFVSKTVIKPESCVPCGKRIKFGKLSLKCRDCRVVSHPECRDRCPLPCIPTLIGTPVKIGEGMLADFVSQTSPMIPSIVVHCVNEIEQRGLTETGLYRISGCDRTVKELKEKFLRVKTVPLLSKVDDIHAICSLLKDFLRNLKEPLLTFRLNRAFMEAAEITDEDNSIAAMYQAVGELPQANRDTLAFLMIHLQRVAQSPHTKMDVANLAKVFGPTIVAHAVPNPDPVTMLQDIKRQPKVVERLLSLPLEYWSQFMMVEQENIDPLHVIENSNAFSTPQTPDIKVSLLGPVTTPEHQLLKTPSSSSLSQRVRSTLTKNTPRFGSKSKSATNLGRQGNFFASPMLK
Kind of assay: MgcRacGAP GTPase-activating activity inhibitors, confirmation, biochemical, ADP Hunter fluorescence, primary and confirmatory (AID 624330). The class given is functional.

For assay [8], the system named is HeLa. Briefly: HeLa cell cytotoxicity, dose response, cytotoxicity control for MITF activator project, CellTiter-Glo luminescence, cherry-pick samples (AID 540259). The class given is functional, cell-based. Particulars: Homo sapiens.
In assay [9] the target is Aryl hydrocarbon receptor (Homo sapiens, UniProt P35869). As to conditions: Potency.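 Note: confirmatory quantitative high-throughput screen measuring activation of the AhR signaling pathway.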
Aryl hydrocarbon receptor, sequence (P35869 whole entry): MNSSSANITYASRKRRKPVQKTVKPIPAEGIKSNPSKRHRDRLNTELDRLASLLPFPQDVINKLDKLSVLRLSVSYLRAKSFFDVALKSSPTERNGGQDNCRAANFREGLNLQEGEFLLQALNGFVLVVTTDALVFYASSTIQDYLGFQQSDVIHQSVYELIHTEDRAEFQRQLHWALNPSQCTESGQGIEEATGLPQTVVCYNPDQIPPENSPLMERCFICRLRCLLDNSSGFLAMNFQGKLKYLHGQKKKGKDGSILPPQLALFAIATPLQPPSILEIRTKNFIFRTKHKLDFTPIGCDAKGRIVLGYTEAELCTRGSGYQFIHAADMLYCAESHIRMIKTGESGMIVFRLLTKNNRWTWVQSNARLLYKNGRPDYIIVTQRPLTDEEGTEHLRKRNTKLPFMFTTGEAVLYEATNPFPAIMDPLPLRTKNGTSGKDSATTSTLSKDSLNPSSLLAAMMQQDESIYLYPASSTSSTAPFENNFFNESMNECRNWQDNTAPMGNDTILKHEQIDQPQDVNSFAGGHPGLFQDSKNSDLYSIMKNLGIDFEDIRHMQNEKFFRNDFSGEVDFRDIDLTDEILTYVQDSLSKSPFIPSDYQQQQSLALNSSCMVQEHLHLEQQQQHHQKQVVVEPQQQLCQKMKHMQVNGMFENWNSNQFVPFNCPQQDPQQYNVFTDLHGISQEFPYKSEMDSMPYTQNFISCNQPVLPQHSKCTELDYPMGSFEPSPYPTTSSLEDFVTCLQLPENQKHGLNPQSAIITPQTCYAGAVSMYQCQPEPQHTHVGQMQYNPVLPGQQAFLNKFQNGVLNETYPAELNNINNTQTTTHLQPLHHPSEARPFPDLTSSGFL
Assay [10] addresses Cytochrome P450 3A4 (Homo sapiens, UniProt P08684). Particulars: Potency.
Assay [11] concerns the target Ras and Rab interactor 1/Tyrosine-protein kinase ABL1 (Homo sapiens, UniProt P00519+Q13671). The assay is classed as functional.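 Note: biochemical TR-FRET dose-response test measuring inhibition of binding between Rin1 and Abl proteins.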
Assay [12] deals with 72 kDa type IV collagenase (Homo sapiens, UniProt P08253). Kind of assay: Dose Response validation of uHTS RPN11 inhibitor hits using a MMP-2 Fluorescence assay. The assay is classed as functional.
72 kDa type IV collagenase, sequence (P08253 whole entry): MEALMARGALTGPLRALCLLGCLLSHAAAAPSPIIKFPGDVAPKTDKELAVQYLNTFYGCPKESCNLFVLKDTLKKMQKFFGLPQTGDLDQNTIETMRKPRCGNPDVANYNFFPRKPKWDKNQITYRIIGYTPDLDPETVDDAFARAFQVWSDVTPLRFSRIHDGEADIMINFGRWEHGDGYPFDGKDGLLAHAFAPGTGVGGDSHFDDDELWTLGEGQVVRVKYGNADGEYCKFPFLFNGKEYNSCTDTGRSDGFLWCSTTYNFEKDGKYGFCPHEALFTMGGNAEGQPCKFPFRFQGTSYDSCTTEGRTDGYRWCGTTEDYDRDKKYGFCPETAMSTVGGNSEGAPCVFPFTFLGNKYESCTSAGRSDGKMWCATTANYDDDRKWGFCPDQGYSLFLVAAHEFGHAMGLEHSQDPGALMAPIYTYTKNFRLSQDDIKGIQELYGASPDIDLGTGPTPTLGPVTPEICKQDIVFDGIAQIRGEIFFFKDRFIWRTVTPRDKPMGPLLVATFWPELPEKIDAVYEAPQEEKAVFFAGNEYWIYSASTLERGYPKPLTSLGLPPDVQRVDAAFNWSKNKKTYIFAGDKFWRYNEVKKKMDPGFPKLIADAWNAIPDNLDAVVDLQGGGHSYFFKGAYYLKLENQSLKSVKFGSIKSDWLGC
Assay [13] has as its target Prothrombin (Bos taurus, UniProt P00735). Briefly: thrombin inhibition, dose response, biochemical, fluorescence polarization, uHTS hits (AID 602369). The class given is functional.
For assay [14], the target named is 26S proteasome non-ATPase regulatory subunit 14 (Homo sapiens, UniProt O00487). Briefly: inhibition of proteasome subunit RPN11 – biochemical, fluorescence polarization, uHTS hits, confirmation (AID 602368). The class given is functional.
26S proteasome non-ATPase regulatory subunit 14, sequence (O00487 whole entry): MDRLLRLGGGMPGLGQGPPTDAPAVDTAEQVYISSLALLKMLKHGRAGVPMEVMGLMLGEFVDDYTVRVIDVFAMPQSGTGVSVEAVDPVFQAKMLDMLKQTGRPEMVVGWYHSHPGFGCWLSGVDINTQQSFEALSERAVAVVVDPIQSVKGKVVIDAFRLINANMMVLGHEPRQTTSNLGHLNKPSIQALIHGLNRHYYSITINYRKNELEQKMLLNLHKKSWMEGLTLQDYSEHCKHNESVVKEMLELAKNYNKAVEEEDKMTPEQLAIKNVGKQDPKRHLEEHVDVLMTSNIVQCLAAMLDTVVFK
Assay [15] can be described thus: control 3'UTR Renilla luciferase suppression, dose response, counter-screen for Shn3 inhibitor project, cell-based, Clone20-Shn3RL, cherry-picked (AID 624133). The assay is classed as functional.
Assay [16] is described as follows: HepG2 cell cytotoxicity, dose response, cytotoxicity control for Shn3 inhibitor project, CellTiter-Glo, cherry-picked (AID 624134). The class given is functional, cell-based.
The target of assay [17] is Protein Wnt-3a (Mus musculus, UniProt P27467). Kind of assay: Wnt3a-driven reporter signaling inhibition, dose response, selectivity assay for Gli-SUFU antagonist project, Wnt-LIGHT cells, luminescence (AID 651570).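 Note: Wnt-LIGHT reporter cells stimulated with conditioned medium from Wnt3a-producing cells.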 The assay is classed as functional. Particulars: read-out: IC50_Mean.
Assay [18] in a line: Shn3 3'UTR reporter inhibitors, dose response, cell-based, Clone20 osteoblasts, firefly luciferase, cherry-picked (AID 624132).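 Note: firefly luciferase luminescence from reporter carrying the Shn3 3'UTR in osteoblasts.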 The class given is functional.
For assay [19], the target named is Nonstructural protein 1 (Influenza A virus, UniProt Q194T2). The assay is classed as functional, Influenza A virus (A/California/07/2009(H1N1)).

Ras and Rab interactor 1/Tyrosine-protein kinase ABL1, sequence (P00519 whole entry): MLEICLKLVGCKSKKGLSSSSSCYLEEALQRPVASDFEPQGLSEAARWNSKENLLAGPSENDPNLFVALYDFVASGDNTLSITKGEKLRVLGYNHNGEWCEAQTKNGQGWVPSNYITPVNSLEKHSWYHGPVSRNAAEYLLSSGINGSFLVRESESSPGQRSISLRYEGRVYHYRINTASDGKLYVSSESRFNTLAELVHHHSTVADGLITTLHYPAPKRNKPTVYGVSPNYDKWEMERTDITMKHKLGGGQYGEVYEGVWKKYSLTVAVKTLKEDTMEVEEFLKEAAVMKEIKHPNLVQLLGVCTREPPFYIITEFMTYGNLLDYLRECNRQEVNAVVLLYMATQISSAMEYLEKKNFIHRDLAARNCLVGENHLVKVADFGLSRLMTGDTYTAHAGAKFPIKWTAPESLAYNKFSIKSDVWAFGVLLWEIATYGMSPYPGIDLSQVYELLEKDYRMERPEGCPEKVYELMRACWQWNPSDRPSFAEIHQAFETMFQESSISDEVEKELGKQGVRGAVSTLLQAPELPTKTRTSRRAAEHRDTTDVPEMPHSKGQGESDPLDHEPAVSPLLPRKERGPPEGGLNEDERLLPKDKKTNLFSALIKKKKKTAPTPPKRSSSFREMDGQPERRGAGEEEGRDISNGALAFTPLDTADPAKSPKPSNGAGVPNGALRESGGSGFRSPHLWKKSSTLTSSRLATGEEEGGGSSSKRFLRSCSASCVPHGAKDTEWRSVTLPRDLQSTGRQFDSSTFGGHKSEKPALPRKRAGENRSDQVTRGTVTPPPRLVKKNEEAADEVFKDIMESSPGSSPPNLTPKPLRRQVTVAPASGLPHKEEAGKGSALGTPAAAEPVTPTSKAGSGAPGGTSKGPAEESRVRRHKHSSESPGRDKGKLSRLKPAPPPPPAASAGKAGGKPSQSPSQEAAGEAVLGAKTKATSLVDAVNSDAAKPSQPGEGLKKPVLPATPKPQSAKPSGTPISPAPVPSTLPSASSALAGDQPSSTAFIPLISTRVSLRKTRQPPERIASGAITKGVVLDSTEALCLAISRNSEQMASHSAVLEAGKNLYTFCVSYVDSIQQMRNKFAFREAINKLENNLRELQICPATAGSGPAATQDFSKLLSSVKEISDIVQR
Ras and Rab interactor 1/Tyrosine-protein kinase ABL1, sequence (Q13671 whole entry): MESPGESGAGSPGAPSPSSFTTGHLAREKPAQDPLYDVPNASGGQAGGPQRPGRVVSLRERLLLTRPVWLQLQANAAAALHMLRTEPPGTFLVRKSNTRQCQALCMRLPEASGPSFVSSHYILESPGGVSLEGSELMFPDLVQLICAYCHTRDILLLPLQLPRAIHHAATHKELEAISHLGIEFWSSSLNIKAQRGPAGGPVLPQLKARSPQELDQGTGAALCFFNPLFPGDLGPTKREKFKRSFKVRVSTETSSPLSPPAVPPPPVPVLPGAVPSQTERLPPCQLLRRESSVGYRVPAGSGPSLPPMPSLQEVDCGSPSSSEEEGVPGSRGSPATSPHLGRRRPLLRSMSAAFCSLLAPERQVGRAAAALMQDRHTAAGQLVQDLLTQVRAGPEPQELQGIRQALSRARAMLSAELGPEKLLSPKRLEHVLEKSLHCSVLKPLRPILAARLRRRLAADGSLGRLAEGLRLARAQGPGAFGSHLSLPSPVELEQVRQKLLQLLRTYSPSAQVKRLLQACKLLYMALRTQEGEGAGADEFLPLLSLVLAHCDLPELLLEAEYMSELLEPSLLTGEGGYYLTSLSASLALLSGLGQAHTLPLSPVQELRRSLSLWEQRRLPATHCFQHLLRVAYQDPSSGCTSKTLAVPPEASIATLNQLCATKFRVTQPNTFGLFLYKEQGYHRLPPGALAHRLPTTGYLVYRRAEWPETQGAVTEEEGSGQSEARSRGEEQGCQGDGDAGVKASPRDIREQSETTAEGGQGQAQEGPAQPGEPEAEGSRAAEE

In the case of `Nc1cc(O)nc(SCC(=O)N2N=C(c3ccc4ccccc4c3)CC2c2ccccc2)n1` (stereo unspecified), the AC50 in assay [1] was 16.1 µM (active).
For the compound `O=c1c2ccccc2nc(/C=C/c2cccnc2)n1Cc1ccccc1Cl`, the IC50 in assay [2] and in [3] was > 80 µM (inactive) each time.
Take `COc1ccc(C(=O)Nc2ccc3c(c2)C(=O)c2ccccc2C3=O)cc1OC`: in [4], the IC50 was > 100 µM (inactive).
Consider `O=c1c2ccccc2nc(/C=C/c2cccc(Cl)c2)n1Cc1ccccc1`, for which the IC50 in assay [2] and in assay [3] was > 80 µM (inactive) each time.
For `CC1(C)OC(=O)C(=Cc2ccc(-c3ccc(S(N)(=O)=O)cc3)o2)C(=O)O1`, the results for the IC50 in assay [5], in assay [6] and in assay [7] were > 64.6 µM (inactive), > 64.6 µM (inactive) and 41.8 µM (active), respectively.
Consider `Nc1ccc2cc3ccccc3cc2c1` [2-AMINOANTHRACENE], for which the AC50 was 122 µM (active) in assay [8], 25.1 µM (inconclusive) in assay [9] and 15.8 µM (inconclusive) in [10].
With `Oc1nc2ccccc2n1C1CCN(C(c2nnnn2C2CCCCC2)C2CC2)CC1` (stereo unspecified), the IC50 in assay [11] is 3.14 µM (active).
Take `O=C(Cn1cc(C(=O)COc2ccccc2)c2ccccc21)NCc1ccco1`: the IC50 in assay [12] was > 100 µM (inactive); in assay [13], 41.3 µM (active); in assay [14] it was 47.6 µM (active).
As for `CCOC(=O)c1c(NC(=O)COc2cccc3c2CCN(C)C3=O)sc2c1CCC2`, the values for the IC50 in assay [5], in assay [6] and in [17] were > 64.6 µM (inactive), > 64.6 µM (inactive) and 6.12 µM (active), respectively. Besides, the values for the AC50 in assay [15], in assay [16] and in assay [18] were 22.8 µM (active), 41.7 µM (active) and 5.44 µM (active), respectively.
With `O=[N+]([O-])c1ccc(O)c(/C=N/NC2=NS(=O)(=O)c3ccccc32)c1`, the IC50 in [12] is 5.41 µM (active); in assay [13] it was 36.8 µM (active); in assay [19], 2.35 µM (active); in [14], 34.9 µM (active).

For the origin of these results see ChEMBL document CHEMBL1201862, “PubChem BioAssay data set” (2004).
